Read-outs that look alike come from different tables or passages of the source.
Tests used:
[1] = tested on: Plasmodium berghei (Pb-Luc) exoerythrocytic-stage parasites; assay: microbe, parasite or virus in culture; settings: for inhibition at 10 µM: read-out: PbLuc max inhibition (%) @ 10 uM
HepG2-A16-CD81EGFP cells = assay: cells; settings: Homo sapiens; for IC50: HepG2, read-out: Tox IC50; for inhibition at 50 µM: HepG2, read-out: Tox max inhibition (%) @ 50 uM; for inhibition at 10 µM: HepG2, read-out: Tox max inhibition (%) @ 10 uM
[2] = target: QuantiLum Recombinant Luciferase (Photinus pyralis, UniProt P08659); assay: Bioluminescence quantification of compound luciferase inhibition; settings: for Emax: read-out: LucInhib max inhibition
[3] = read-out: Inhibition% @ 50 uM rep1
[4] = read-out: Inhibition% @ 50 uM rep2
[5] = read-out: PbLuc IC50, dose response, unit inferred
[6] = read-out: PbLuc max inhibition (%) @ 50 uM
[7] = HepG2, read-out: HepG2 Tox% @ 50 uM rep1
[8] = read-out: PbLuc IC50, dose response, 1/3 dilutions, max conc. 10 or 50 uM, unit inferred
[9] = HepG2, read-out: HepG2 Tox% @ 50 uM rep2

Sequence of QuantiLum Recombinant Luciferase (P08659 whole entry): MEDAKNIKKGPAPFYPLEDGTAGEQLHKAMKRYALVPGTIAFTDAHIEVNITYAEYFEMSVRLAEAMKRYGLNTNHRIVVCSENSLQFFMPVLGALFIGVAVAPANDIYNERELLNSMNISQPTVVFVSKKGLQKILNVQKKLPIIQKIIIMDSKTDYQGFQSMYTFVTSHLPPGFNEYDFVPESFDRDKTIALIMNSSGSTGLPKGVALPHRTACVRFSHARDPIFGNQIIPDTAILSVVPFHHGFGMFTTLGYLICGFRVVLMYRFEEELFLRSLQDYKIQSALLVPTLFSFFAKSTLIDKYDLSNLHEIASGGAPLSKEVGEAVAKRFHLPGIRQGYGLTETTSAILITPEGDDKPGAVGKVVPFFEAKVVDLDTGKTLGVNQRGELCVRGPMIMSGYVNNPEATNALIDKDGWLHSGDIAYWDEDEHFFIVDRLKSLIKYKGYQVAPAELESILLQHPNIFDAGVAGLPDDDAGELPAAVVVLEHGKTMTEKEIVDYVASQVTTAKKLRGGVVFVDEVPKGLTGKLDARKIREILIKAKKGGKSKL

| Compound | inhibition at 50 µM [1, 3] [%] | inhibition at 50 µM [1, 4] [%] | IC50 [1, 5] [nM] | inhibition at 50 µM [1, 6] [%] | cytotoxicity at 50 µM (HepG2-A16-CD81EGFP cells; [7]) [%] | IC50 (HepG2-A16-CD81EGFP cells) [µM] | inhibition at 50 µM (HepG2-A16-CD81EGFP cells) [%] | IC50 [2] [µM] | Emax [2] [%] | IC50 [1, 8] [nM] | cytotoxicity at 50 µM (HepG2-A16-CD81EGFP cells; [9]) [%] | inhibition at 10 µM [1] [%] | inhibition at 10 µM (HepG2-A16-CD81EGFP cells) [%] |
| --- | --- | --- | --- | --- | --- | --- | --- | --- | --- | --- | --- | --- | --- |
| COc1cc(CNCCc2ccc(Cl)cc2)cc(OC)c1O [MMV128432] | 90 | 93 | > 50000 | 73 | -13 | > 50 | 33 | > 50 | 39 |  |  |  |  |
| COc1ccc(-c2nc(N3CCN(C(=O)C4CCCCC4)CC3)c3c4c(sc3n2)CCCC4)cc1 [MMV396594] | 98 | 98 | 39900 | 69 | 2.59 | > 50 | 37 | > 50 | 44 |  |  |  |  |
| CCOc1ccccc1CN1CCc2nc3cc(C(C)(C)C)nn3c(O)c2C1 [MMV396595] | 99 | 100 |  | 106 | 0.78 | > 50 | 8 | > 50 | 50 | 569 |  |  |  |
| Cc1sc(NC(=O)c2ccccc2)c(C(c2cccs2)N2CCN(c3ccccc3)CC2)c1C (stereo not shown) [MMV396652] | 99 | 99 |  | 97 | 14 | > 50 | 28 | > 50 | 33 | 4070 |  |  |  |
| COc1ccc(-c2cc3c(SCC(=O)Nc4cc(C(F)(F)F)ccc4Cl)nccn3n2)cc1 [MMV396679] | 102 | 103 |  | 105 | 7 | > 50 | 14 | > 50 | 10 | 2180 | 18 |  |  |
| Cc1ccc(-c2cc3c(SCC(=O)Nc4cc(C(F)(F)F)ccc4Cl)nccn3n2)cc1 [MMV396680] | 92 | 85 |  | 95 | -4 | > 50 | 11 | > 50 | 21 | 8630 | 2.13 |  |  |
| N#Cc1nc(Cc2cccc3ccccc23)oc1N1CCN(C(c2ccccc2)c2ccccc2)CC1 [MMV396726] | 97 | 92 |  | 100 | -11 | > 50 | -1 | > 50 | 23 | 2680 |  |  |  |
| CCOC(=O)c1cnc2c(CC)cccc2c1O [MMV498479] | 103 | 103 |  | 106 | -10 | > 50 | 1 | > 50 | 19 | 1670 |  |  |  |
| CCOc1cc(Cl)c(C(C)NC(=O)c2ccccc2)cc1OCC (stereo not shown) [MMV665800] | 97 | 93 | > 50000 | 89 | 49 | > 50 | 22 | > 50 | 41 |  | 21 |  |  |
| CCOC(=O)c1cn(CC)c2cc(N3CCCCC3)c(F)cc2c1=O [MMV665827] | 102 | 105 |  |  | -12 | > 10 |  | > 20 | 24 | 74.3 | -7 | 99 | 15 |
| O=C(Nc1ccc(-c2nc3ccccc3[nH]2)cc1)c1ccc(Cl)c(Cl)c1 [MMV665840] | -57 | -66 | > 10000 |  | -7 | > 10 |  | > 20 | 22 |  |  | 15 | 31 |
| Oc1c2c(nc3ccccc13)CCCC2 [MMV665843] | 98 | 100 |  | 101 | -7.59 | > 50 | 8 | > 50 | 18 | 894 |  |  |  |
| COc1cccc(NC(=O)[C@H](C(C)C)n2c(=O)[nH]c3ccccc3c2=O)c1 [MMV665878] | 102 | 102 |  | 101 | 12 | > 50 | 13 | > 50 | 28 | 13200 | 4.53 |  |  |
| O=C(c1ccccc1F)N(Cc1ccc(Cl)cc1)c1ccccn1 [MMV665899] | 100 | 98 |  | 94 | 20 | > 50 | 6 | > 50 | 40 | 9540 | 28 |  |  |
| COCCn1c(C)nc2ccccc2c1=O [MMV665904] | 100 | 102 |  |  | 1.26 | > 10 |  | > 20 | 13 | 1990 | -3 | 90 | 22 |
| N=c1c2ccccc2nnn1-c1cccc(C(F)(F)F)c1 [MMV665923] | 99 | 99 |  | 104 | -7.5 | > 50 | 26 | > 50 | 26 | 790 |  |  |  |
| FC(F)(F)c1ccc(Nc2nnnc3ccccc23)cc1 [MMV665935] | 102 | 101 |  | 105 | 19 | > 50 | 7 | > 50 | 25 | 738 | -5 |  |  |
| CCOc1ccc(C=Cc2nc(=O)c3ccccc3o2)cc1 [MMV665940] | 102 | 101 |  | 104 | 19 | > 50 | 18 | 16.5 | 85 | 646 | 1 |  |  |
| CCOC(=O)c1cn(CC)c2cc(N(C)CCc3ccc(OC)c(OC)c3)c(F)cc2c1=O [MMV665977] | 103 | 106 |  | 106 | 6 | > 50 | 3.53 | > 50 | 40 | 1610 | 3 |  |  |

— publication PMC4890880 (ACS infectious diseases, 2016)
